Results: ChEMBL document CHEMBL1155461, “Emerging targets in osteoporosis disease modification” (J Med Chem, 2010)

Tests used:
Homo sapiens [1] = experiment: Antiosteoporotic activity in postmenopausal woman with osteoporosis assessed as decrease in bone resorption-associated serum CTX-1 level at 50 mg/kg; assay type: functional
Homo sapiens [2] = experiment: Antiosteoporotic activity in postmenopausal woman with osteoporosis assessed as decrease in bone resorption-associated urinary CTX-1 level at 50 mg/kg; assay type: functional; conditions: Urine
Homo sapiens [3] = experiment: Antiosteoporotic activity in postmenopausal woman with osteoporosis assessed as increase lumbar spine bone mineral density at 50 mg/kg; assay type: functional
Homo sapiens [4] = experiment: Antiosteoporotic activity in postmenopausal woman with osteoporosis assessed as increase hip bone mineral density at 50 mg/kg; assay type: functional, Bone of hip region
[5] = biological target: T1, Extracellular calcium-sensing receptor (Homo sapiens, UniProt P41180)
T1 sequence (P41180 whole entry): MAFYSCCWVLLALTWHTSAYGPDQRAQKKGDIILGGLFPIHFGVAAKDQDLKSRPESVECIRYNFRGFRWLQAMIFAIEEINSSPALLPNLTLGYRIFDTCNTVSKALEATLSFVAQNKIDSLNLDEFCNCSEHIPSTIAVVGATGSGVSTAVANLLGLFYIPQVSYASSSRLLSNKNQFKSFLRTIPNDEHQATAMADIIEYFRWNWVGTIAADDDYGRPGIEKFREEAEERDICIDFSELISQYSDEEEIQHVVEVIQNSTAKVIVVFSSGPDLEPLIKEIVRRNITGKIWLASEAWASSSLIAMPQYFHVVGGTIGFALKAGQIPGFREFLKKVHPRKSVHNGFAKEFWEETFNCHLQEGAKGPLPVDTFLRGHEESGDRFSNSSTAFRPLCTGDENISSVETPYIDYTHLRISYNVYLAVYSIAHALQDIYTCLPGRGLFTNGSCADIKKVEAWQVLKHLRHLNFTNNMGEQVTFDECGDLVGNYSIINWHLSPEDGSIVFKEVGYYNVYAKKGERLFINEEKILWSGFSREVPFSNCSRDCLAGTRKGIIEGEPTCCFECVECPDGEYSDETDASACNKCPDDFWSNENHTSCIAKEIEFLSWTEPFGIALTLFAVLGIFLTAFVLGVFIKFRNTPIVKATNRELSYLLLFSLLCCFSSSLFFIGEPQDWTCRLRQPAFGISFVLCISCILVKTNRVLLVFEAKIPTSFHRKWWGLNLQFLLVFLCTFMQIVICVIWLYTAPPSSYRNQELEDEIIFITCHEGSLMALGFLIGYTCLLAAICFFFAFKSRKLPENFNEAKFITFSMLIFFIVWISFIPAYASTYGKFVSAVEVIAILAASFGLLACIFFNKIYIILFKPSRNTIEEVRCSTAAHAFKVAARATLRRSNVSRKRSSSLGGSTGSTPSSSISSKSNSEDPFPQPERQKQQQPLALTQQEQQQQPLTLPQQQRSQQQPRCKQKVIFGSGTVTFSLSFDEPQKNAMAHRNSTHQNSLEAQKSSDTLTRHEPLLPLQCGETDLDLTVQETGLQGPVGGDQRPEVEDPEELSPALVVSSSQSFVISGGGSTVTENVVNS

[6] = Selectivity for cathepsin K over cathepsin B
[7] = Selectivity for cathepsin K over cathepsin L
[8] = Selectivity for cathepsin K over cathepsin S
Cathepsin K = Cathepsin K (Homo sapiens, UniProt P43235)
Cathepsin K, sequence (P43235 whole entry): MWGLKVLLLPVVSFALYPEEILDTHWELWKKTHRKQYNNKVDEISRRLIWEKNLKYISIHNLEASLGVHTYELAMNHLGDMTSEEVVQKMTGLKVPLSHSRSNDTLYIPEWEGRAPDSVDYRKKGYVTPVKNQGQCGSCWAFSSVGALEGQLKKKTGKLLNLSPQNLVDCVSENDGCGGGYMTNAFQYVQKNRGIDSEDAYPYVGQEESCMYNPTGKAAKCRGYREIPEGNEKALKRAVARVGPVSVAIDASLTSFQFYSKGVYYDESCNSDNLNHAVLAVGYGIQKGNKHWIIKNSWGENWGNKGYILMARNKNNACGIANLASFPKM

MC3T3-E1 [9] = experiment: Induction of osteogenesis in mouse MC3T3-E1 cells assessed as increase in osteoblast differentiation-associated ALP level at 0.03 uM; assay type: functional
MC3T3-E1 [10] = experiment: Induction of osteogenesis in mouse MC3T3-E1 cells assessed as increase in osteoblast differentiation-associated collagen synthesis at 0.03 uM; assay type: functional
MC3T3-E1 [11] = experiment: Induction of osteogenesis in mouse MC3T3-E1 cells assessed as increase in bone mineralization at 0.03 uM; assay type: functional
Osteoclast [12] = experiment: Inhibition of osteoclastogenesis in RANKL/M-CSF-stimulated osteoclast; assay type: functional, cell-based
[13] = Selectivity for integrin alphaVbeta3 over integrin alphaVbeta5
Integrin alpha-V/beta-3 = Integrin alpha-V/beta-3 (Homo sapiens, UniProt P05106+P06756)
Integrin alpha-V/beta-3, sequence (P05106 27-788 limits assumed): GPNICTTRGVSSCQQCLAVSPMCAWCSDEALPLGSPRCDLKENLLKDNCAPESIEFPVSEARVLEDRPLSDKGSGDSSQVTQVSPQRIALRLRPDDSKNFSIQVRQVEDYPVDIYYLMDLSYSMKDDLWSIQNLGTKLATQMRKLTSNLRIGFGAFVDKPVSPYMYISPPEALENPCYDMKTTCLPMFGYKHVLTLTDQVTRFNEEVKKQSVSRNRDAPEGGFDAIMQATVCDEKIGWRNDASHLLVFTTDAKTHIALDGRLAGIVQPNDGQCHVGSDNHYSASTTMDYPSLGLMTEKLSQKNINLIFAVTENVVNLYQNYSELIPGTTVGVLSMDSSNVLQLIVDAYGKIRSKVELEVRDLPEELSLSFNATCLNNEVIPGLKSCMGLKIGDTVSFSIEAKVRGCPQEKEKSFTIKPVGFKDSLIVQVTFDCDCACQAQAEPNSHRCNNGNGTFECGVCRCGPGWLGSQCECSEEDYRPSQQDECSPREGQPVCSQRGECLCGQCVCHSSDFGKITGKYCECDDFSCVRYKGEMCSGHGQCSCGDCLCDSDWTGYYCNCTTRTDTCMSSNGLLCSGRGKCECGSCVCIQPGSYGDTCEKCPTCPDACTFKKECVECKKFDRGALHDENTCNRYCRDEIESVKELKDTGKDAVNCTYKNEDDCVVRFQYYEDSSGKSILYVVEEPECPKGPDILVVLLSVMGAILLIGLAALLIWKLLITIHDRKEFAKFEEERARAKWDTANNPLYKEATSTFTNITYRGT
Integrin alpha-V/beta-3, sequence (P06756 31-889 limits assumed): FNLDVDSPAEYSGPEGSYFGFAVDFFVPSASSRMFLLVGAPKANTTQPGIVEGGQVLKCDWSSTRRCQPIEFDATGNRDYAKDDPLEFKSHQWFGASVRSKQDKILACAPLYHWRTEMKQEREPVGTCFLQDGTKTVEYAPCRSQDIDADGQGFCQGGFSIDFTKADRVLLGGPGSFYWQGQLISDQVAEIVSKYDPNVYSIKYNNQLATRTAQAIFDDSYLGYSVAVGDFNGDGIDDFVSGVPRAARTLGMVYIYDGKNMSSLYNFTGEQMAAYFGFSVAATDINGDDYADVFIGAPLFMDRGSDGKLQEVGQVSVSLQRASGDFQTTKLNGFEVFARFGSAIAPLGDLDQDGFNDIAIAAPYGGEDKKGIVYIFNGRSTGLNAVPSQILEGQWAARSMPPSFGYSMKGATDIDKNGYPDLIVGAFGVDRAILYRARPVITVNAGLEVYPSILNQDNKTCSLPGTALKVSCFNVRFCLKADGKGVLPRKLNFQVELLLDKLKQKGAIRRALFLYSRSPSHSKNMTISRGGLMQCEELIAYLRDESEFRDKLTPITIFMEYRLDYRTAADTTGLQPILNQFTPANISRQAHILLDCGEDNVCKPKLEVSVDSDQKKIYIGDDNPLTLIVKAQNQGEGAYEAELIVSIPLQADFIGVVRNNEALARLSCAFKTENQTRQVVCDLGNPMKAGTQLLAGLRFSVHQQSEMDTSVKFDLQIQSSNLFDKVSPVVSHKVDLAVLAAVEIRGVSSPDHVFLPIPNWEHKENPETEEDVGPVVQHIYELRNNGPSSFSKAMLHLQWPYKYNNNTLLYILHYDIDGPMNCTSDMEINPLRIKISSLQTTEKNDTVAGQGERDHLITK
Integrin alpha-V/beta-3, sequence (P06756 891-1048 limits assumed): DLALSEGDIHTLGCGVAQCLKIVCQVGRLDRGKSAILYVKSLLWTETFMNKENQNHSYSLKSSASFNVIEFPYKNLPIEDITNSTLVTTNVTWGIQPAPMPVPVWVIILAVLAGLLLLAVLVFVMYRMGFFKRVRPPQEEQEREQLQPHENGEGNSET

[14] = Induction of osteogenesis in rat UMR106 cells assessed as stimulation of cell proliferation at 10 nM; assay type: functional
Homo sapiens [15] = experiment: Antiosteoporotic activity in men with osteoporosis assessed as decrease in bone resorption-associated serum CTX-1 level at 250 mg/kg after 10 to 14 days; assay type: functional, organism-based; parameters: dose 250 mg/kg; conditions: dose 250 mg/kg
Homo sapiens [16] = experiment: Antiosteoporotic activity in men with osteoporosis assessed as decrease in bone resorption-associated urinary CTX-1 level at 250 mg/kg after 10 to 14 days; assay type: functional; conditions: Urine
Rattus norvegicus [17] = experiment: Induction of bone formation in ovariectomized rat assessed as increase in bone mineralizing surface area at 30 mg/kg, po after 28 days (RVb = 30.4%); assay type: functional
Rattus norvegicus [18] = experiment: Induction of bone formation in ovariectomized rat assessed as bone mineral apposition rate per day at 30 mg/kg, po after 28 days (RVb = 1.43 uM); assay type: functional
[19] = Induction of osteogenesis in rat ROS 17/2.8 cells assessed as stimulation of cell proliferation at 1 nM; assay type: functional
[20] = Clearance in rat; assay type: ADME, organism-based; conditions: in vivo
Osteoclast [21] = experiment: Inhibition of osteoclastogenesis in RANKL-stimulated mouse osteoclast at 10 uM; assay type: functional
Osteoclast [22] = experiment: Inhibition of osteoclastogenesis in RANKL-stimulated mouse osteoclast at 20 uM; assay type: functional

CCCN1CCN(c2ccc(C(=O)NC3(C(=O)NCC#N)CCCCC3)cc2)CC1 [BALICATIB]
inhibition in vivo at 50 mg/kg (Homo sapiens [1]): 61% | inhibition in vivo at 50 mg/kg (Homo sapiens [2]): 55% | Activity (Homo sapiens [3]): 4.46% | Activity (Homo sapiens [4]): 2.25%

CCOC(=O)CCc1ccc(C#N)c(OC[C@H](O)CNC(C)(C)CC2Cc3ccccc3C2)c1
IC50 [5]: 520 nM

CN1CCN(c2nc(-c3ccc(C(=O)NC4(C(=O)N[C@@H]5C(=O)N[C@@H]5Oc5ccccc5)CCCCC4)cc3)cs2)CC1
Selectivity ratio [6]: 71 | Selectivity ratio [7]: 500 | Selectivity ratio [8]: 3540 | Ki (Cathepsin K): 4.8 nM

COc1cc([C@H]2OC[C@H](Cc3cc(OC)c(O[C@@H]4O[C@H](CO)[C@@H](O)[C@H](O)[C@H]4O)c(OC)c3)[C@@H]2CO)cc(OC)c1O [MANGLIESIDE E]
Activity (MC3T3-E1 [9]): 112% | Activity (MC3T3-E1 [10]): 118% | Activity (MC3T3-E1 [11]): 109%

CC1(C)C(=O)CC[C@]2(C)[C@@H]1CC[C@@]13CC4[C@@H](C[C@H]12)[C@]4(C(=O)O)C3
IC50 (Osteoclast [12]): 4000 nM

CC(C)(C)OC(=O)[C@@H]1C[C@H](CC(=O)O)[C@H]2CC[C@H](NC(=O)[C@@H](N)CCCNC(=N)N)C(=O)N21
Selectivity ratio [13]: 3.5 | IC50 (Integrin alpha-V/beta-3): 304 nM

O=c1c(O[C@@H]2O[C@H](CO)[C@@H](O)[C@H](O)[C@H]2O)c(-c2ccc(O)cc2)oc2cc(O[C@@H]3O[C@@H](CO)[C@H](O)[C@H]3O)cc(O)c12
Activity [14]: 35.9%

CN1CCN(CCOc2cc(OC3CCOCC3)c3c(Nc4c(Cl)ccc5c4OCO5)ncnc3c2)CC1 [SARACATINIB]
inhibition in vivo at 250 mg/kg (Homo sapiens [15]): 88% | inhibition in vivo at 250 mg/kg (Homo sapiens [16]): 67%

COc1cc(Cl)c(/C=C2\S/C(=N/c3cccc(C(=O)O)c3)N(C)C2=O)cc1OC
IC50 (Integrin alpha-V/beta-3): 30 nM

CN(c1ccccc1CNc1nc(Nc2ccc3c(c2)CC(=O)N3)ncc1C(F)(F)F)S(C)(=O)=O
Activity (Rattus norvegicus [17]): 40.6% | mineral apposition rate (Rattus norvegicus [18]): 1.96 µm/day

C[C@@H]1O[C@@H](O[C@H]2[C@H](Oc3cc(O)c4c(c3)O[C@H](c3ccc(O)cc3)CC4=O)O[C@H](CO)[C@@H](O)[C@@H]2O)[C@H](O)[C@H](O)[C@H]1O [NARINGIN]
Activity [19]: 150%

CC(C)(CC1Cc2ccccc2C1)NC[C@@H](O)COc1cc(CCC(=O)O)ccc1C#N [SB-423562]
clearance [20]: 89 mL/min/kg | IC50 [5]: 73 nM

C=CCc1ccc(O)c(O[C@@H]2O[C@H](CO[C@@H]3OC[C@](O)(CO)[C@H]3O)[C@@H](O)[C@H](O)[C@H]2O)c1 [MANGLIESIDE B]
Activity (MC3T3-E1 [9]): 114% | Activity (MC3T3-E1 [10]): 123% | Activity (MC3T3-E1 [11]): 118%

O=C(O[C@@H]1Cc2c(O)cc(O)cc2O[C@@H]1c1cc(O)c(O)c(O)c1)c1cc(O)c(O)c(O)c1 [EPIGALOCATECHIN GALLATE]
inhibition at 10 µM (Osteoclast [21]): 17% | inhibition at 20 µM (Osteoclast [22]): 32%
